The source made the active and inactive calls. No cut-off for these calls is given here.
target: T1, Cation channel sperm-associated protein 1 (Mus musculus) (UniProt Q91ZR5); test: Inhibition of wild type CatSper1 channel in mouse corpus epididymal sperm cells assessed decrease in Ca2+ current by whole cell patch clamp assay; settings: not given
T1 sequence (whole entry): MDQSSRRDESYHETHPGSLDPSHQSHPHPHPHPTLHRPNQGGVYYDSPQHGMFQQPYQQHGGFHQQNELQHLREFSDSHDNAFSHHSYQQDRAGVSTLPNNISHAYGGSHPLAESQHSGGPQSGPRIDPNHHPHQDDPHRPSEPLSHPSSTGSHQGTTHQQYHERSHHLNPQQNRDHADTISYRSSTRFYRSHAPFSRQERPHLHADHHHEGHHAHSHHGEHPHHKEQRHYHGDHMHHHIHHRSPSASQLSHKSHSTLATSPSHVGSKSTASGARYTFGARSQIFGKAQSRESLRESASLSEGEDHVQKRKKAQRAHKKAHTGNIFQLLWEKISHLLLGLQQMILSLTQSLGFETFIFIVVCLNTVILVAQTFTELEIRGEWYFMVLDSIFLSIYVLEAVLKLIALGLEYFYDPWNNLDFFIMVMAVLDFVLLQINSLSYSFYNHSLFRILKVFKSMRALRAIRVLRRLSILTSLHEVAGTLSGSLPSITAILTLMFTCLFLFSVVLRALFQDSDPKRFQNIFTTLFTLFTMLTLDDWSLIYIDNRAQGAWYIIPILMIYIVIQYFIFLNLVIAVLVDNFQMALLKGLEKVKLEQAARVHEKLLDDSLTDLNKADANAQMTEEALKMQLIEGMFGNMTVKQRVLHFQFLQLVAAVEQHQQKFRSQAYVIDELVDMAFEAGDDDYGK

SMILES	inhibition
CC(C)(C)C(=O)c1no[n+]([O-])c1C(=O)C(C)(C)C	Active
Cc1conc1C(=O)c1no[n+]([O-])c1C(=O)c1nocc1C	Active

Results, then the compound that gave them:

inhibition	SMILES
Active	O=C(c1ccccc1)c1no[n+]([O-])c1C(=O)c1ccccc1
Active	O=C(c1ccc(Cl)c(Cl)c1)c1no[n+]([O-])c1C(=O)c1ccc(Cl)c(Cl)c1
Active	O=C(c1cccs1)c1no[n+]([O-])c1C(=O)c1cccs1

target: T2, Cation channel sperm-associated protein 1 (Homo sapiens) (UniProt Q8NEC5); test: Inhibition of CatSper1 channel in human sperm assessed as sperm hyperactivity at 1 uM after 5 mins by computer-assisted sperm analysis (reference value: 10.5%); design: scale not given: the % may be the effect or the level left; settings: not given
T2 sequence (whole entry): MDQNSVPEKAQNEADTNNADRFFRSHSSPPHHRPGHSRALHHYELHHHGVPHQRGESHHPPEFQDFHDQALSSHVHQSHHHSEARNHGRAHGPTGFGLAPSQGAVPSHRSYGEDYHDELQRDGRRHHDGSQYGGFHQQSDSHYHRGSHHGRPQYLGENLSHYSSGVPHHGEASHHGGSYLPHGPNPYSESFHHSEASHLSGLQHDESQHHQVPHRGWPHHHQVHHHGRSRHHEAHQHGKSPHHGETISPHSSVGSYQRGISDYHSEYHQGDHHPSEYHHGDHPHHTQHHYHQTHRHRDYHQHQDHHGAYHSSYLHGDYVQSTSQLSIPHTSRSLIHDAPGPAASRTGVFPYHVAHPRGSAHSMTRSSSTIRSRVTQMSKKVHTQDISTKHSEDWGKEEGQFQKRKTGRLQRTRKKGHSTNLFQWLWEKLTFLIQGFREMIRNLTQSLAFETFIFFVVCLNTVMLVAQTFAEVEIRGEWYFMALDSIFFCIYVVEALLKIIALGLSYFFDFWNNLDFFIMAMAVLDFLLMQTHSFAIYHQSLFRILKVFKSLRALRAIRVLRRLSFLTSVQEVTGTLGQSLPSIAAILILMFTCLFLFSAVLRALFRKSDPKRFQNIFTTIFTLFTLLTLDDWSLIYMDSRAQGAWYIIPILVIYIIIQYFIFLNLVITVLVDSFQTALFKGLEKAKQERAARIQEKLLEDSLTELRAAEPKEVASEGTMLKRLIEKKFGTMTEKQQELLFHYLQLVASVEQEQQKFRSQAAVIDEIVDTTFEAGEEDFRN

SMILES	Activity [%]
O=C(c1cccs1)c1no[n+]([O-])c1C(=O)c1cccs1	6.2

target: T2, Cation channel sperm-associated protein 1 (Homo sapiens); test: Inhibition of CatSper1 channel in human sperm assessed as sperm hyperactivity at 50 uM after 5 mins by computer-assisted sperm analysis (reference value: 10.5%); design: scale not given: the % may be the effect or the level left; settings: not given

SMILES	Activity [%]
O=C(c1cccs1)c1no[n+]([O-])c1C(=O)c1cccs1	1.6

target: T2, Cation channel sperm-associated protein 1 (Homo sapiens); test: Inhibition of CatSper1 channel in human sperm assessed as sperm motility at 1 uM after 5 mins by computer-assisted sperm analysis (reference value: 68%); design: scale not given: the % may be the effect or the level left; settings: not given

SMILES	Activity [%]
O=C(c1cccs1)c1no[n+]([O-])c1C(=O)c1cccs1	59

target: T2, Cation channel sperm-associated protein 1 (Homo sapiens); test: Inhibition of CatSper1 channel in human sperm assessed as sperm motility at 50 uM after 5 mins by computer-assisted sperm analysis (reference value: 68%); design: scale not given: the % may be the effect or the level left; settings: not given

SMILES	Activity [%]
O=C(c1cccs1)c1no[n+]([O-])c1C(=O)c1cccs1	70

target: T2, Cation channel sperm-associated protein 1 (Homo sapiens); test: Inhibition of CatSper1 channel in human sperm assessed as decrease in sperm hyperactivity after 5 mins by computer-assisted sperm analysis; settings: not given

SMILES	inhibition
CC(C)(C)C(=O)c1no[n+]([O-])c1C(=O)C(C)(C)C	Active
Cc1conc1C(=O)c1no[n+]([O-])c1C(=O)c1nocc1C	Active
O=C(c1ccc(Cl)c(Cl)c1)c1no[n+]([O-])c1C(=O)c1ccc(Cl)c(Cl)c1	Active

target: T1, Cation channel sperm-associated protein 1 (Mus musculus); test: Inhibition of CatSper1 channel […] in 129/SvJ x C57BL/6J mouse cauda epididymal sperm assessed as reduction in sperm hyperactivity after 5 mins by single sperm motility assay; settings: not given

SMILES	inhibition
CC(C)(C)C(=O)c1no[n+]([O-])c1C(=O)C(C)(C)C	Dose-dependent effect
Cc1conc1C(=O)c1no[n+]([O-])c1C(=O)c1nocc1C	Dose-dependent effect

Further lines, results first:

inhibition	SMILES
Dose-dependent effect	O=C(c1ccccc1)c1no[n+]([O-])c1C(=O)c1ccccc1
Dose-dependent effect	O=C(c1ccc(Cl)c(Cl)c1)c1no[n+]([O-])c1C(=O)c1ccc(Cl)c(Cl)c1
Dose-dependent effect	O=C(c1cccs1)c1no[n+]([O-])c1C(=O)c1cccs1

tested on: Mus musculus; test: In vivo inhibition of fertility in C57BL/6 male mouse administered in diet after 7 to 9 days; format: functional, organism-based; settings: not given

SMILES	inhibition
CC(C)(C)C(=O)c1no[n+]([O-])c1C(=O)C(C)(C)C	Dose-dependent effect
Cc1conc1C(=O)c1no[n+]([O-])c1C(=O)c1nocc1C	Dose-dependent effect
O=C(c1ccccc1)c1no[n+]([O-])c1C(=O)c1ccccc1	Dose-dependent effect
O=C(c1ccc(Cl)c(Cl)c1)c1no[n+]([O-])c1C(=O)c1ccc(Cl)c(Cl)c1	Dose-dependent effect
O=C(c1cccs1)c1no[n+]([O-])c1C(=O)c1cccs1	Dose-dependent effect

tested on: Mus musculus; test: In vivo inhibition of fertility in C57BL/6 female mouse administered in diet treated for 5 weeks followed by breeding of female mouse with nontreated age-matched male mouse for 4 days; format: functional, organism-based; settings: not given

SMILES	inhibition
CC(C)(C)C(=O)c1no[n+]([O-])c1C(=O)C(C)(C)C	Active
Cc1conc1C(=O)c1no[n+]([O-])c1C(=O)c1nocc1C	Active
O=C(c1ccccc1)c1no[n+]([O-])c1C(=O)c1ccccc1	Active
O=C(c1ccc(Cl)c(Cl)c1)c1no[n+]([O-])c1C(=O)c1ccc(Cl)c(Cl)c1	Active
O=C(c1cccs1)c1no[n+]([O-])c1C(=O)c1cccs1	Active

tested on: not listed separately; test: Toxicity in C57BL/6 male mouse assessed as effect on reproductive hormone levels administered in diet measured after prolonged compound treatment; settings: in vivo, po

SMILES	Activity
CC(C)(C)C(=O)c1no[n+]([O-])c1C(=O)C(C)(C)C	Non-Toxic
Cc1conc1C(=O)c1no[n+]([O-])c1C(=O)c1nocc1C	Non-Toxic
O=C(c1ccccc1)c1no[n+]([O-])c1C(=O)c1ccccc1	Non-Toxic
O=C(c1ccc(Cl)c(Cl)c1)c1no[n+]([O-])c1C(=O)c1ccc(Cl)c(Cl)c1	Non-Toxic
O=C(c1cccs1)c1no[n+]([O-])c1C(=O)c1cccs1	Non-Toxic

tested on: not listed separately; test: Toxicity in C57BL/6 female mouse assessed as effect on reproductive hormone levels administered in diet measured after prolonged compound treatment; settings: in vivo, po

SMILES	Activity
CC(C)(C)C(=O)c1no[n+]([O-])c1C(=O)C(C)(C)C	Non-Toxic
Cc1conc1C(=O)c1no[n+]([O-])c1C(=O)c1nocc1C	Non-Toxic
O=C(c1ccccc1)c1no[n+]([O-])c1C(=O)c1ccccc1	Non-Toxic
O=C(c1ccc(Cl)c(Cl)c1)c1no[n+]([O-])c1C(=O)c1ccc(Cl)c(Cl)c1	Non-Toxic
O=C(c1cccs1)c1no[n+]([O-])c1C(=O)c1cccs1	Non-Toxic

tested on: not listed separately; test: Toxicity in C57BL/6 male mouse assessed as effect on serum biochemistry administered in diet measured after prolonged compound treatment; settings: in vivo, po

SMILES	Activity
CC(C)(C)C(=O)c1no[n+]([O-])c1C(=O)C(C)(C)C	Non-Toxic
Cc1conc1C(=O)c1no[n+]([O-])c1C(=O)c1nocc1C	Non-Toxic
O=C(c1ccccc1)c1no[n+]([O-])c1C(=O)c1ccccc1	Non-Toxic
O=C(c1ccc(Cl)c(Cl)c1)c1no[n+]([O-])c1C(=O)c1ccc(Cl)c(Cl)c1	Non-Toxic
O=C(c1cccs1)c1no[n+]([O-])c1C(=O)c1cccs1	Non-Toxic

tested on: not listed separately; test: Toxicity in C57BL/6 female mouse assessed as effect on serum biochemistry administered in diet measured after prolonged compound treatment; settings: in vivo, po

SMILES	Activity
CC(C)(C)C(=O)c1no[n+]([O-])c1C(=O)C(C)(C)C	Non-Toxic
Cc1conc1C(=O)c1no[n+]([O-])c1C(=O)c1nocc1C	Non-Toxic
O=C(c1ccccc1)c1no[n+]([O-])c1C(=O)c1ccccc1	Non-Toxic
O=C(c1ccc(Cl)c(Cl)c1)c1no[n+]([O-])c1C(=O)c1ccc(Cl)c(Cl)c1	Non-Toxic
O=C(c1cccs1)c1no[n+]([O-])c1C(=O)c1cccs1	Non-Toxic

tested on: not listed separately; test: Toxicity in C57BL/6 male mouse assessed as effect on animal behavior administered in diet measured after prolonged compound treatment; settings: in vivo, po

SMILES	Activity
CC(C)(C)C(=O)c1no[n+]([O-])c1C(=O)C(C)(C)C	Non-Toxic
Cc1conc1C(=O)c1no[n+]([O-])c1C(=O)c1nocc1C	Non-Toxic
O=C(c1ccccc1)c1no[n+]([O-])c1C(=O)c1ccccc1	Non-Toxic
O=C(c1ccc(Cl)c(Cl)c1)c1no[n+]([O-])c1C(=O)c1ccc(Cl)c(Cl)c1	Non-Toxic
O=C(c1cccs1)c1no[n+]([O-])c1C(=O)c1cccs1	Non-Toxic

tested on: not listed separately; test: Toxicity in C57BL/6 female mouse assessed as effect on animal behavior administered in diet measured after prolonged compound treatment; settings: in vivo, po

SMILES	Activity
CC(C)(C)C(=O)c1no[n+]([O-])c1C(=O)C(C)(C)C	Non-Toxic
Cc1conc1C(=O)c1no[n+]([O-])c1C(=O)c1nocc1C	Non-Toxic
O=C(c1ccccc1)c1no[n+]([O-])c1C(=O)c1ccccc1	Non-Toxic
O=C(c1ccc(Cl)c(Cl)c1)c1no[n+]([O-])c1C(=O)c1ccc(Cl)c(Cl)c1	Non-Toxic
O=C(c1cccs1)c1no[n+]([O-])c1C(=O)c1cccs1	Non-Toxic

tested on: Mus musculus; test: Reversible inhibition of fertility in C57BL/6 female mouse administered in diet for 2 months; format: functional; settings: TDE = time-dependent effect

SMILES	inhibition
CC(C)(C)C(=O)c1no[n+]([O-])c1C(=O)C(C)(C)C	Tde
Cc1conc1C(=O)c1no[n+]([O-])c1C(=O)c1nocc1C	Tde
O=C(c1ccccc1)c1no[n+]([O-])c1C(=O)c1ccccc1	Tde
O=C(c1ccc(Cl)c(Cl)c1)c1no[n+]([O-])c1C(=O)c1ccc(Cl)c(Cl)c1	Tde
O=C(c1cccs1)c1no[n+]([O-])c1C(=O)c1cccs1	Tde

tested on: Mus musculus; test: Reversible inhibition of fertility in C57BL/6 male mouse administered in diet for 2 months; format: functional; settings: TDE = time-dependent effect

SMILES	inhibition
CC(C)(C)C(=O)c1no[n+]([O-])c1C(=O)C(C)(C)C	Tde
Cc1conc1C(=O)c1no[n+]([O-])c1C(=O)c1nocc1C	Tde
O=C(c1ccccc1)c1no[n+]([O-])c1C(=O)c1ccccc1	Tde
O=C(c1ccc(Cl)c(Cl)c1)c1no[n+]([O-])c1C(=O)c1ccc(Cl)c(Cl)c1	Tde
O=C(c1cccs1)c1no[n+]([O-])c1C(=O)c1cccs1	Tde

target: T1, Cation channel sperm-associated protein 1 (Mus musculus); test: Inhibition of CatSper1 currents in mouse spermatozoa isolated from corpus epididymis at 20 uM by whole cell patch clamp assay; settings: not given

SMILES	inhibition
O=C(c1cccs1)c1no[n+]([O-])c1C(=O)c1cccs1	Active

From ChEMBL document CHEMBL3880419, “Modulators of sperm hypermobility and uses thereof” (2013)
